# Results from paper PMC11879280, “Antimicrobial activity of peptoids against Metallo-β-lactamase-producing Klebsiella pneumoniae, Acinetobacter baumannii, Pseudomonas aeruginosa, and other WHO priority pathogens, including Candida auris” (Journal of Applied Microbiology, 2025).
# Like-named read-outs stand apart in the source and are kept apart here. Square brackets hold non-standard residues; d marks the D form. Peptide text beside a SMILES is read from it. Nspe = C[C@H](NCC(=O)O)c1ccccc1; NDecylGly = CCCCCCCCCCNCC(=O)O; Nlys = NCCCCNCC(=O)O
# Columns and labels:
# [1] = as low as; ref Nielsen et al. [2022]; cited from earlier work
# Excerpt: Lipopeptoids can self-assemble into micellar macromolecules due to the hydrophobic tail domains driven by the intermolecular hydrophobic interactions. […] In a ...
# [2] = test system: C. auris CBS12373 biofilm; type: cell-based, Candida auris; conditions: for Mature biofilm inhibition, blank corrected 570 nm, av. of readings: MTT absorbance
# Protocol: To assess disruption of mature biofilms, 2 × 10^5 cells were cultured for 2 h in 96-well flat bottom microtiter plates at 37°C, washed, then incubated for 48 h in fresh media to form mature biofilm. […] For each activity test, the metabolic activities of the yeast cells in biofilms were measured by MTT reduction assay after washing the disrupted biofilm with PBS (Srivastava and Ahmad [2020]).
# K. pneumoniae JIE2713 = test system: K. pneumoniae JIE2713
# Outline: (§1)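 Each strain, at 5 × 10^5 CFU ml^−1, is exposed to compound in Mueller–Hinton-based broth (cation-adjusted for antibiotics) and incubated 16–20 h, 37°C, 120 rpm. Bactericidal concentrations come from plating log10 dilutions of the wells on supplemented agar.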
# K. pneumoniae JIE4212 = test system: K. pneumoniae JIE4212
# Outline: as §1
# P. aeruginosa 33 = test system: P. aeruginosa 33
# Outline: as §1
# [3] = test system: Gram-positive bacteria (Enteroc. faecalis and S. aureus)
# Outline: as §1
# En. cloacae 001 = test system: En. cloacae 001
# Outline: as §1
# S. aureus 38 = test system: S. aureus 38
# Outline: as §1
# C. auris CBS 10913 [4] = assay: Time-kill kinetics; type: cell-based, Candida auris; conditions: RPMI, 35°C, three independent runs
# Protocol: Killing kinetics (time-kill) were evaluated as described previously (Lum et al. [2015]). […] At set intervals (0, 0.5, 1, 1.5, 2, 2.5, 3, 4, 5, 6, 12, and 24 h), 100 µl samples were serially diluted in PBS and plated on Sabouraud dextrose agar (SDA; Oxoid, UK) with 0.5% polysorbate 80 (Chem-supply, SA, Australia). CFUs were enumerated, with a yeast growth control processed similarly. Results were presented from three independent runs.
# C. auris strains = test system: C. auris strains
# Protocol: (§2) Briefly, bacteria were suspended in cation-adjusted Mueller–Hinton broth (CAMHB; Oxoid, UK) for antibiotics, or MHB (Oxoid, UK) for peptidomimetics to obtain 5 × 10^5 colony forming unit (CFU) ml^−1. […] Positive controls contained only microbes, and blanks contained only media. Microbial suspensions (100 µl) were added to wells, plates wrapped, and incubated at 37°C, 120 rpm for 16–20 h. After incubation, suspensions were removed, log10 diluted, and plated on Trypticase Soya Agar with phosphatidylcholine and Tween 80 to determine minimum bactericidal or fungicidal concentration (MBC or MFC). […] Geometric mean MIC of the peptoids were calculated to evaluate the broad overview of antimicrobial activity across the pathogens.
# (§3) The therapeutic indices (TIs) of the compounds were calculated with the use of following formula: […]
# Enterobacteriaceae = assay: Geometric mean MIC, therapeutic index and selectivity ratio, Enterobacteriaceae; type: cell-based; conditions: Enterobacteriaceae (E. coli, K. pneumoniae, and E. aerogenes)
# Protocol: as §2, §3
# [5] = test system: C. auris CBS12373 biofilm; assay: Anti-adherence (biofilm prevention), MTT reduction assay; type: cell-based, Candida auris
# Protocol: Finally, 3-(4,5-Dimethylthiazol 2-yl)-2,5-diphenyltetrazolium bromide (MTT) reduction assay was performed to observe the metabolic activities of C. auris.
# C. auris CBS 10913 [6] = assay: microbe, parasite or virus in culture; type: cell-based, Candida auris; conditions: CBS 10913, 48 h
# Protocol: Amphotericin B was tested in parallel as a positive control (Ramesh et al. [2023]).
# [7] = test system: ESKAPEE pathogens (all bacteria); assay: Geometric mean MIC, therapeutic index and selectivity ratio, all bacteria; type: cell-based; conditions: across the 23 ESKAPEE strains
# Protocol: as §2, §3
# [8] = test system: S. aureus, K. pneumoniae, P. aeruginosa, and En. cloacae biofilm; conditions: ref Nielsen et al. [2022]; cited from earlier work
# Excerpt: Another way microbes can acquire tolerance and become resistant to antimicrobials is by the production of biofilms. In biofilms, microbes switch from planktonic state to sessile form, where they are encased in an extracellular polymeric substance matrix, thereby being protected from stressful environmental conditions (Di Fermo et al. [2024]). Most ESKAPEE pathogens and C. auris form antimicrobial tolerant biofilms associated with device-associated infections (Kean and Ramage [2019], Sarkar et al. [2024]). The antibiofilm activity of some of these peptoids has already been studied against ESKAP ...
# [9] = test system: MBL phenotypes of A. baumannii; conditions: MBL phenotypes of
# Protocol: Briefly, bacteria were suspended in cation-adjusted Mueller–Hinton broth (CAMHB; Oxoid, UK) for antibiotics, or MHB (Oxoid, UK) for peptidomimetics to obtain 5 × 10^5 colony forming unit (CFU) ml^−1. […] Positive controls contained only microbes, and blanks contained only media. Microbial suspensions (100 µl) were added to wells, plates wrapped, and incubated at 37°C, 120 rpm for 16–20 h. […] Geometric mean MIC of the peptoids were calculated to evaluate the broad overview of antimicrobial activity across the pathogens.
# MBL-producing bacteria = assay: Geometric mean MIC, therapeutic index and selectivity ratio, MBL-producing bacteria; type: cell-based
# Protocol: as §2
# The test was performed as per the manufacturer’s instructions. Briefly, the strips were applied to a lawn culture of bacteria maintained at 1.5 × 10^8 CFU ml^−1 on Mueller–Hinton agar (Oxoid, UK) and incubated for 20 h at 37°C.
# as §3
structure (smiles),measurement,setting,value
CCCCCCCCCCNCC(=O)N(CCCCN)CC(=O)N(CC(=O)N(CC(=O)N(CCCCN)CC(=O)N(CC(=O)N(CC(N)=O)[C@@H](C)c1ccccc1)[C@@H](C)c1ccccc1)[C@@H](C)c1ccccc1)[C@@H](C)c1ccccc1 [TM8] (H-[NDecylGly][Nlys][Nspe][Nspe][Nlys][Nspe][Nspe]-NH2),Concentration at which self-assembly into an ellipsoidal form is found,[1],1000 ng/mL
same,Biofilm tolerance factor-eradication (MBEC/MIC),"[2]; C. auris CBS12373, MTT",4
same,Mature biofilm MBEC,"[2]; CBS12373 biofilm, 48 h",62.5 µg/mL
same,"Mature biofilm inhibition, blank corrected 570 nm, av. of readings",[2]; agent at 0.976562 (growth control 1.115),1.684
same,"Mature biofilm inhibition, blank corrected 570 nm, av. of readings",[2]; agent at 1.95312 (growth control 1.115),1.307
same,"Mature biofilm inhibition, blank corrected 570 nm, av. of readings",[2]; agent at 3.90625 (growth control 1.115),0.871
same,"Mature biofilm inhibition, blank corrected 570 nm, av. of readings",[2]; agent at 7.8125 (growth control 1.115),0.456
same,"Mature biofilm inhibition, blank corrected 570 nm, av. of readings",[2]; agent at 15.625 (growth control 1.115),0.49
same,"Mature biofilm inhibition, blank corrected 570 nm, av. of readings",[2]; agent at 31.25 (growth control 1.115),0.129
same,"Mature biofilm inhibition, blank corrected 570 nm, av. of readings",[2]; agent at 62.5 (growth control 1.115),0
same,"Mature biofilm inhibition, blank corrected 570 nm, av. of readings",[2]; agent at 125 (growth control 1.115),-0.0001
same,"Mature biofilm inhibition, blank corrected 570 nm, av. of readings",[2]; agent at 250 (growth control 1.115),0.02
same,"Mature biofilm inhibition, blank corrected 570 nm, av. of readings",[2]; agent at 500 (growth control 1.115),0.02
same,MIC of peptidomimetics,K. pneumoniae JIE2713; JIE2713,14.0 µM
same,MIC of peptidomimetics,"K. pneumoniae JIE2713; K. pneumoniae JIE2713, MHB (melimine/Mel4 with 0.2% BSA, 0.01% acetic acid), mean MIC",15.6 µg/mL
same,MIC of peptidomimetics,K. pneumoniae JIE4212; JIE4212,7.0 µM
same,MIC of peptidomimetics,"K. pneumoniae JIE4212; K. pneumoniae JIE4212, MHB (melimine/Mel4 with 0.2% BSA, 0.01% acetic acid), mean MIC",7.8 µg/mL
same,MIC of peptidomimetics,P. aeruginosa 33; 33,3.5 µM
same,MIC of peptidomimetics,"P. aeruginosa 33; P. aeruginosa 33, MHB (melimine/Mel4 with 0.2% BSA, 0.01% acetic acid), mean MIC",3.9 µg/mL
same,MIC range,[3],3.9 to 7.8 µg/mL
same,MIC of peptidomimetics,En. cloacae 001,7.0 µM
same,MIC of peptidomimetics,"En. cloacae 001; En. cloacae 001, MHB (melimine/Mel4 with 0.2% BSA, 0.01% acetic acid), mean MIC",7.8 µg/mL
same,MIC of peptidomimetics,S. aureus 38; 38,3.5 µM
same,MIC of peptidomimetics,"S. aureus 38; S. aureus 38, MHB (melimine/Mel4 with 0.2% BSA, 0.01% acetic acid), mean MIC",3.9 µg/mL
same,Time to 3-log reduction,C. auris CBS 10913 [4]; 1× MIC,≤ 6 h
same,Time to complete killing of the yeast cells,C. auris CBS 10913 [4]; 1× MIC,≤ 12 h
same,Time to fungicidal activity,C. auris CBS 10913 [4]; 4× MIC,≤ 2 h
same,MIC against both C. auris strains,C. auris strains; strains,< 10 µg/mL
same,Geometric mean MICCA,C. auris strains; two C. auris strains,5.5 µg/mL
same,Geometric mean MICE,Enterobacteriaceae,11.0 µg/mL
same,Biofilm tolerance factor-prevention (BPC/MIC),[5],8
same,Anti-adherence (BPC),"[5]; 2 h adhesion with agent, 48 h growth, ≥90% reduction",125 µg/mL
same,MIC in the absence of ergosterol,C. auris CBS 10913 [6],7.8 µg/mL
same,MIC in the presence of exogenous ergosterol,C. auris CBS 10913 [6],31.25 µg/mL
same,"Geometric mean MIC, all bacteria",[7],7.3 µg/mL
same,"Geometric mean MIC, all bacteria",[7]; value in brackets,6.6 µM
same,Concentration with significant inhibition of biofilm formation,[8],1.56 µg/mL
same,MIC,[9],≤ 7.8 µg/mL
same,MIC against C. auris,"C. auris CBS10913; CBS 10 913, RPMI 1640 with MOPS, 5 × 10^3 CFU ml^−1, ≥90% reduction (≥50% for fluconazole)",7.8 µg/mL
same,MIC against C. auris,C. auris CBS10913; CBS10913,7.0 µM
same,MIC at high cell density,C. auris CBS10913; CBS10913,15.6 µg/mL
same,Geometric mean MICMBL,MBL-producing bacteria,7.8 µg/mL
